Laboratory results: publication PMC6272238, “Synthesis and Pharmacophore Modelling of 2,6,9-Trisubstituted Purine Derivatives and Their Potential Role as Apoptosis-Inducing Agents in Cancer Cell Lines” (Molecules, 2015)

Tests used:
[1] = system: HL-60 (leukemia) cells; test: MTT cytotoxicity assay on HL-60 cells; assay type: cell-based, human; conditions: 72 h continuous exposure, triplicate, range 0.05 to 50 µM
Experimental: (§1) The potential in vitro antitumor activity of compounds 4a–l was initially tested for their cytotoxic effects on H1975, HL-60, HCT116 and HeLa cancer cell lines and Vero cells. […]
(§2) Cancer cell lines were grown at 37 °C in humidified atmosphere and 5% CO2. H1975, HL60, HTC116 and Vero cells were grown in RPMI 1640 culture medium supplemented with 10% fetal bovine serum and (100 UI/mL) penicillin-streptomicyn. HeLa cells were grown in EMEM culture medium, supplemented with 10% fetal bovine serum and (100 UI/mL) penicillin-streptomicyn.
(§3) Cytotoxicity assays were performed by using the MTT reduction method as described previously. Briefly, cancer cell lines were plated in a flat-bottom 96-wells plate at 10,000 cells per well density. […] Ten µL of MTT was added at a final concentration of 0.5 mg/mL, incubated at 37 °C for 4 h, and then solubilized with 10% sodium dodecyl sulfate (SDS) in 0.1 mM HCl and incubated overnight at 37 °C. Formazan formation was measured at 570 nm in a multiwell reader (StatFax 4200, Awareness Technology, Inc. Palm City, FL, USA).
(§4) Values are expressed as means ± standard deviations from three independent experiments. IC50 values, (Compound concentration necessary to decrease at 50% the MTT reduction) and the two-way analysis of variance (ANOVA) test were performed when necessary with Prism GraphPad 6.0f software (GraphPad Software Inc., San Diego, CA, USA).

[2] = system: Vero cells; test: MTT cytotoxicity assay on Vero cells; assay type: cell-based; conditions: Chlorocebus sabaeus, 72 h continuous exposure, triplicate, range 0.05 to 50 µM
[3] = system: HCT116 (colorectal) cells; test: MTT cytotoxicity assay on HCT116 cells; assay type: cell-based, human; conditions: for IC50: MTT, 72 h continuous exposure, triplicate, range 0.05 to 50 µM; for Selectivity Index (SI) (Vero/HCT116): ratio IC50 (Vero)/IC50 (HCT116)
Experimental: as §1, §2, §3, §4

[4] = system: HeLa cells; test: MTT cytotoxicity assay on HeLa cells; assay type: cell-based, human; conditions: for IC50: MTT, 72 h continuous exposure, triplicate, range 0.05 to 50 µM; for Selectivity Index (SI) (Vero/HeLa): ratio IC50 (Vero)/IC50 (HeLa)
Experimental: as §1, §2, §3, §4

[5] = system: H1975 (lung) cells; test: MTT cytotoxicity assay on H1975 cells; assay type: cell-based, human; conditions: for IC50: MTT, 72 h continuous exposure, triplicate, range 0.05 to 50 µM; for Selectivity Index (SI) (Vero/H1975): ratio IC50 (Vero)/IC50 (H1975)
Experimental: as §1, §2, §3, §4

[6] = system: HTC116 cells; test: Apoptosis/viability assay by FACS with propidium iodide, HTC116; assay type: cell-based, human; conditions: HTC116, 50 µM, 16 h, PI staining
Experimental: (§5) To evaluate sensitivity to 4f, 4j and 4k, Vero, HTC116, H1975 and Hela were treated with concentrations of 50 µM for 16 h. Fifty µM etoposide was used as positive control. As it can be seen in Figure 5, 4f, 4j and 4k induced apoptosis as a prevalent type of cell death, in high percentages (>70%), in every cancer cell line. Moreover, 4f, 4j, and 4k induced an apoptotic cell response greater than etoposide.
(§6) Cell viability was analyzed by FACS as previously described. In this assay, after setting the baseline to exclude cell debris, cells impermeable to propidium iodide (PI negative) are considered as viable. Two populations of PI-permeable dead cells are distinguished based on fluorescence intensity, corresponding to either hypodiploid apoptotic cells or necrotic cells with intact DNA. Here, H1975, HTC116, and HeLa cells were incubated with concentrations of 50 µM of each compound for 16 h at 37 °C. Cells were harvested and stained with 10 µg/mL of propidium iodide to determine cell viability. Samples containing roughly 1 × 10^4 cells were evaluated by flow cytometry (FACScanto II; Becton Dickinson, Mountain View, CA, USA) and analyzed using the software program FCS Express v5.

[7] = system: HeLa cells; test: Apoptosis/viability assay by FACS with propidium iodide, HeLa; assay type: cell-based, human; conditions: 50 µM, 16 h, PI staining
Experimental: as §5, §6

[8] = system: H1975 cells; test: Apoptosis/viability assay by FACS with propidium iodide, H1975; assay type: cell-based, human; conditions: H1975, 50 µM, 16 h, PI staining
Experimental: as §5, §6

Row | Structure (SMILES) | IC50 ([1]; Homo sapiens, HL-60, 72 h) [µM] | IC50 [2] [µM] | IC50 ([3]; Homo sapiens, HCT-116, 72 h) [µM] | IC50 ([4]; Homo sapiens, HeLa, 72 h) [µM] | IC50 ([5]; Homo sapiens, NCI-H1975, 72 h) [µM] | melting point [°C] | Selectivity Index (SI) (Vero/HCT116) [3] | Selectivity Index (SI) (Vero/HeLa) [4] | Selectivity Index (SI) (Vero/H1975) [5] | IC50 [1] [µM] | IC50 [3] [µM] | IC50 [4] [µM] | IC50 [5] [µM] | apoptosis (percentage of cells) [6] [%] | apoptosis (percentage of cells) [7] [%] | apoptosis (percentage of cells) [8] [%]
1 | CCCCn1cnc2c(NCc3ccc(OC)cc3)nc(NCc3ccccc3)nc21 [Compound 4h, N^2-Benzyl-9-butyl-N^6-(4-methoxybenzyl)-9H-purine-2,6-diamine] | > 50 | 17 ± 0.2 | 7 ± 0.16 | 6.3 ± 0.17 | 11 ± 0.25 | – | – | – | – | – | – | – | – | – | – | –
2 | COc1ccc(CNc2nc(NCc3ccccc3)nc3c2ncn3C(C)C)cc1 [Compound 4g, N^2-Benzyl-9-isopropyl-N^6-(4-methoxybenzyl)-9H-purine-2,6-diamine] | 22 ± 0.13 | 15 ± 0.23 | 7.1 ± 0.11 | 10.7 ± 0.18 | > 50 | 69 to 70 | 2.11 | 1.40 | – | – | – | – | – | – | – | –
3 | COc1ccc(CNc2nc(NCc3ccccc3)nc3c2ncn3CC(C)C)cc1 [Compound 4i, N^2-Benzyl-9-isobutyl-N^6-(4-methoxybenzyl)-9H-purine-2,6-diamine] | > 50 | 1.9 ± 0.24 | 1.6 ± 0.12 | 4.9 ± 0.16 | 3.4 ± 0.28 | 110 to 112 | 1.19 | 0.39 | 0.56 | – | – | – | – | – | – | –
4 | CC(C)CCn1cnc2c(NCc3ccccc3)nc(NCc3ccccc3)nc21 [Compound 4e, N^2,N^6-Dibenzyl-9-isopentyl-9H-purine-2,6-diamine] | > 50 | 2.5 ± 0.14 | 5.1 ± 0.14 | 2.7 ± 0.13 | 8.6 ± 0.18 | 69 to 70 | 0.49 | 0.93 | 0.29 | – | – | – | – | – | – | –
5 | CC(C)Cn1cnc2c(NCc3ccccc3)nc(NCc3ccccc3)nc21 [Compound 4c, N^2,N^6-Dibenzyl-9-isobutyl-9H-purine-2,6-diamine] | > 36 | 22 ± 0.23 | > 36 | > 36 | > 36 | 111 to 113 | – | – | 0.61 | > 50 | > 50 | > 50 | 36 ± 0.27 | – | – | –
6 | COc1ccc(CNc2nc(NCc3ccccc3)nc3c2ncn3CCC(C)C)cc1 [Compound 4k, N^2-Benzyl-9-isopentyl-N^6-(4-methoxybenzyl)-9H-purine-2,6-diamine] | > 50 | 34 ± 0.13 | 11 ± 0.26 | 5.4 ± 0.32 | 5.6 ± 0.23 | – | 3.09 | 6.30 | 6.07 | – | – | – | – | > 70 | > 70 | > 70
7 | CC(C)n1cnc2c(NCc3ccccc3)nc(NCc3ccccc3)nc21 [Compound 4a, N^2,N^6-Dibenzyl-9-isopropyl-9H-purine-2,6-diamine] | 26 ± 0.13 | 20 ± 0.11 | 13 ± 0.12 | 32 ± 0.13 | 14 ± 0.26 | – | 1.54 | 0.63 | 1.43 | – | – | – | – | – | – | –
